Experimental findings from patent US20070276011A1, “Plasminogen Activator Inhibitor-1 Inhibitor” (priority 2003, published 2007) are described below.

Some results are limits rather than exact numbers.

For the assay, the target named is recombinant human PAI-1 (Homo sapiens, UniProt P05121). Description: PAI-1 inhibitory activity, Test Method A (tPA fluorogenic substrate, Tris buffer pH8.0, 37 C). The class given is biochemical. The following applies: 25 μM test compound; Test Method A.
Chain of recombinant human PAI-1 (P05121 24-402): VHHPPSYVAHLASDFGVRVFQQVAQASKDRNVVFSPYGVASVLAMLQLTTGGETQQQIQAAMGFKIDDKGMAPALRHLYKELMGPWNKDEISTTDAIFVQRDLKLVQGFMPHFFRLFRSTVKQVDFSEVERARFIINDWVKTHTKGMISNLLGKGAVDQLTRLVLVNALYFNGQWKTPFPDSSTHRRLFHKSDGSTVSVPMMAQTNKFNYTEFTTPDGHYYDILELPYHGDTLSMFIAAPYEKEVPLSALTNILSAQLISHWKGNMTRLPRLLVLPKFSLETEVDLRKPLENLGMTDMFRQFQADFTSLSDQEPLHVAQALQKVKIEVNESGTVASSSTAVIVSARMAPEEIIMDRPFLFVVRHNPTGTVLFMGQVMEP
As to `COc1ccc(NC(=O)c2cc(C=C3SC(=O)N(Cc4cc(C(F)(F)F)cc(C(F)(F)F)c4)C3=O)ccc2O)cc1OC` [compound 383, 5-[4-Hydroxy-3-(3,4-dimethoxyphenylcarbamoyl)benzylidene]-3-[3,5-bis(trifluoromethyl)benzyl]thiazolidine-2,4-dione], the “Inhibitory Ratio at 25 μM (%)” value was 73%.

As for `COc1ccc(NC(=O)c2cc(C=C3SC(=O)N(Cc4cc(F)cc(F)c4)C3=O)ccc2O)cc1OC` [compound 385, 5-[4-Hydroxy-3-(3,4-dimethoxyphenylcarbamoyl)benzylidene]-3-(3,5-difluorobenzyl)thiazolidine-2,4-dione], the “Inhibitory Ratio at 25 μM (%)” value is on record as above 99%.

Turning to `O=C(Nc1ccc(O)c(O)c1)c1cc(C=C2SC(=O)N(Cc3cc(F)cc(F)c3)C2=O)ccc1O` [compound 386], the “Inhibitory Ratio at 25 μM (%)” value came to 98%.

Consider `COc1ccc(COC(=O)c2cc(C=C3SC(=O)N(Cc4ccc(C(F)(F)F)cc4)C3=O)ccc2O)cc1` [compound 387, 5-[4-hydroxy-3-(4-methoxybenzyloxycarbonyl)benzylidene]-3-[4-(trifluoromethyl)benzyl]thiazolidine-2,4-dione], for which the “Inhibitory Ratio at 25 μM (%)” value is reported as 74%.

`O=C(Nc1ccc(O)c(O)c1)c1cccc(C=C2SC(=O)N(Cc3ccc(Cl)c(Cl)c3)C2=O)c1` [compound 388, 5-[3-(3,4-Dihydroxyphenylcarbamoyl)benzylidene]-3-(3,4-dichlorobenzyl)thiazolidine-2,4-dione]: the “Inhibitory Ratio at 25 μM (%)” value is 65%.

For `O=C(O)c1ccc(NC(=O)c2cccc(C=C3SC(=O)N(Cc4ccc(Cl)c(Cl)c4)C3=O)c2)cc1` [compound 389, 5-[3 (4-Carboxyphenylcarbamoyl)benzylidene]-3-(3,4-dichlorobenzyl)thiazolidine-2,4-dione], the “Inhibitory Ratio at 25 μM (%)” value is listed as above 99%.

For the compound `Cc1cc(C=C2SC(=O)N(Cc3ccc(Cl)c(Cl)c3)C2=O)cc(C(=O)O)c1O` [compound 390, 5-(3-Methyl-4-hydroxy-5-carboxybenzylidene)-3-(3,4-dichlorobenzyl)thiazolidine-2,4-dione], the “Inhibitory Ratio at 25 μM (%)” value is recorded as above 99%.

`COc1ccc(NC(=O)c2cc(C=C3SC(=O)N(Cc4ccc(C(F)(F)F)cc4)C3=O)ccc2O)cc1OC` [compound 391, 5-[4-Hydroxy-3-(3,4-dimethoxyphenylcarbamoyl)benzylidene]-3-[4-(trifluoromethyl)benzyl]thiazolidine-2,4-dione]: the “Inhibitory Ratio at 25 μM (%)” value was above 99%.

For `O=C(Nc1ccc(Cl)nc1)c1cc(C=C2SC(=O)N(Cc3ccc(C(F)(F)F)cc3)C2=O)ccc1O` [compound 392], the “Inhibitory Ratio at 25 μM (%)” value is reported as above 99%.

For `COc1ccc(NC(=O)c2cc(C=C3SC(=O)N(Cc4cc(C)cc(C)c4)C3=O)ccc2O)cc1OC` [compound 393, 5-[4-Hydroxy-3-(3,4-dimethoxyphenylcarbamoyl)benzylidene]-3-(3,5-dimethylbenzyl)thiazolidine-2,4-dione], the “Inhibitory Ratio at 25 μM (%)” value is above 99%.

`Cc1cc(C)cc(CN2C(=O)SC(=Cc3ccc(O)c(C(=O)Nc4ccc(O)c(O)c4)c3)C2=O)c1` [compound 394]: the “Inhibitory Ratio at 25 μM (%)” value is on record as above 99%.

As to `COc1ccc(NC(=O)c2cc(C=C3SC(=O)N(Cc4cc(Cl)cc(Cl)c4)C3=O)ccc2O)cc1OC` [compound 395, 5-[4-Hydroxy-3-(3,4-dimethoxyphenylcarbamoyl)benzylidene]-3-(3,5-dichlorobenzyl)thiazolidine-2,4-dione], the “Inhibitory Ratio at 25 μM (%)” value amounted to 88%.

In the case of `O=C(Nc1ccc(O)c(O)c1)c1cc(C=C2SC(=O)N(Cc3cc(Cl)cc(Cl)c3)C2=O)ccc1O` [compound 396], the “Inhibitory Ratio at 25 μM (%)” value was 95%.

As to `COc1ccc(NC(=O)c2cc(C=C3SC(=O)N(Cc4ccc(Cl)cc4Cl)C3=O)ccc2O)cc1OC` [compound 397, 5-[4-Hydroxy-3-(3,4-dimethoxyphenylcarbamoyl)benzylidene]-3-(2,4-dichlorobenzyl)thiazolidine-2,4-dione], the “Inhibitory Ratio at 25 μM (%)” value is reported as above 99%.

On to `O=C(Nc1ccc(O)c(O)c1)c1cc(C=C2SC(=O)N(Cc3ccc(Cl)cc3Cl)C2=O)ccc1O` [compound 398], for which the “Inhibitory Ratio at 25 μM (%)” value is above 99%.

In the case of `COc1ccc(NC(=O)c2cc(C=C3SC(=O)N(Cc4cccc(Oc5ccccc5)c4)C3=O)ccc2O)cc1OC` [compound 399, 5-[4-Hydroxy-3-(3,4-dimethoxyphenylcarbamoyl)benzylidene]-3-(3-phenoxybenzyl)thiazolidine-2,4-dione], the “Inhibitory Ratio at 25 μM (%)” value is reported as above 99%.

For `O=C(Nc1cc(C(F)(F)F)ccc1C(F)(F)F)c1cc(C=C2SC(=O)N(Cc3ccc(Cl)c(Cl)c3)C2=O)ccc1O` [compound 403], the “Inhibitory Ratio at 25 μM (%)” value is reported as 58%.

Turning to `O=C(Nc1cc(C(F)(F)F)cc(C(F)(F)F)c1)c1cc(C=C2SC(=O)N(Cc3ccc(Cl)c(Cl)c3)C2=O)ccc1O` [compound 404], the “Inhibitory Ratio at 25 μM (%)” value is above 99%.

As to `COC(=O)c1ccc(NC(=O)c2cc(C=C3SC(=O)N(Cc4ccc(Cl)c(Cl)c4)C3=O)ccc2O)cc1OC` [compound 405, 5-{4-hydroxy-3-[3-methoxy-4-(methoxycarbonyl)phenylcarbamoyl]-benzylidene}-3-(3,4-dichlorobenzyl)thiazolidine-2,4-dione], the “Inhibitory Ratio at 25 μM (%)” value was 55%.

`COc1ccc(NC(=O)c2cc(C=C3SC(=O)N(Cc4ccc(Cl)c(Cl)c4)C3=O)ccc2O)cn1` [compound 407, 5-{4-hydroxy-3-[(2-methoxypyridin-5-yl)carbamoyl]benzylidene}-3-(3,4-dichlorobenzyl)thiazolidine-2,4-dione]: the “Inhibitory Ratio at 25 μM (%)” value came to 97%.

Consider `O=C(Nc1ccc(O)nc1)c1cc(C=C2SC(=O)N(Cc3ccc(Cl)c(Cl)c3)C2=O)ccc1O` [compound 408], for which the “Inhibitory Ratio at 25 μM (%)” value is recorded as above 99%.

With `O=C1SC(=Cc2c[nH]c3ccccc23)C(=O)N1Cc1ccc(Cl)c(Cl)c1` [compound 410, 5-(indol-3-ylmethylene)-3-(3,4-dichlorobenzyl)thiazolidine-2,4-dione], the “Inhibitory Ratio at 25 μM (%)” value was 36%.

In the case of `O=C1SC(=Cc2cn(Cc3ccc(OCc4ccccc4)c(OCc4ccccc4)c3)c3ccccc23)C(=O)N1Cc1ccc(Cl)c(Cl)c1` [compound 411, 5-[1-(3,4-dibenzyloxybenzyl)indol-3-ylmethylene]-3-(3,4-dichlorobenzyl)thiazolidine-2,4-dione], the “Inhibitory Ratio at 25 μM (%)” value is 95%.

As for `O=C(Nc1cccc(OC(F)(F)F)c1)c1cc(C=C2SC(=O)N(Cc3ccc(Cl)c(Cl)c3)C2=O)ccc1O` [compound 414], the “Inhibitory Ratio at 25 μM (%)” value amounted to 91%.

Turning to `COC(=O)c1ccc(CN2C(=O)SC(=Cc3ccc(O)c(C(=O)Nc4ccc(Cl)c(Cl)c4)c3)C2=O)cc1` [compound 415, 5-[4-hydroxy-3-(3,4-dichlorophenylcarbamoyl)benzylidene]-3-(4-methoxycarbonylbenzyl)thiazolidine-2,4-dione], the “Inhibitory Ratio at 25 μM (%)” value is reported as above 99%.

Consider `COC(=O)c1ccc(NC(=O)c2cc(C=C3SC(=O)N(Cc4ccc(Cl)c(Cl)c4)C3=O)ccc2O)cc1` [compound 416, 5-{4-hydroxy-3-[4-(methoxycarbonyl)phenylcarbamoyl]benzylidene}-3-(3,4-dichlorobenzyl)thiazolidine-2,4-dione], for which the “Inhibitory Ratio at 25 μM (%)” value was found to be 73%.
